Laboratory results: US12649733B2, “3,6-diamino-pyridazin-3-yl derivatives, pharmaceutical compositions containing them and their uses as pro-apoptotic agents” (LES LABORATOIRES SERVIER, priority 2019, dated 2026)

What was measured:
H146 cells = test: H146 cell viability, MTT assay; assay type: cell-based; settings: Homo sapiens, NCI-H146, 48 h, 48 h exposure
How it was run: (§1)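 Viability read by MTT reduction (OD 540 nm after overnight SDS/HCl lysis) after 48 h compound treatment of cells in RPMI 1640/10% FBS. Triplicates at nine concentrations, 3.16-fold apart; four-parameter curve fitting yields IC50.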

MOLT-4 cells = test: MOLT-4 cell viability, MTT assay; assay type: cell-based; settings: Homo sapiens, MOLT-4, 48 h, 48 h exposure
How it was run: as §1

Bcl-xL protein = target: T1, Bcl-xL protein (Homo sapiens, UniProt Q07817, N197C); test: Fluorescence quenching assay (PUMA peptide displacement); assay type: binding; settings: 1 nM protein, 400 nM peptide, 2 hours at 23° C.; KI determined from IC50
T1 construct: (2-197)[N197C]; His-His (two His8 stretches joined by a Gly/Ala/Ser/Thr linker)
T1 sequence (Q07817 2-197 N197C): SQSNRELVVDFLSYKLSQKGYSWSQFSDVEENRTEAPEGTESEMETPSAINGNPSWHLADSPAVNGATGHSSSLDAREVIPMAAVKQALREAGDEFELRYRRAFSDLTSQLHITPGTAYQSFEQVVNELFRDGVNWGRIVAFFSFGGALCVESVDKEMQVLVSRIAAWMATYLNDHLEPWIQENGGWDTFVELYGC
How it was run: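 Compounds were tested as an 11-point series in pH 7.4 HEPES/NaCl/Tween buffer with 5% DMSO, 2 h at 23 °C. Cy5-tagged Bcl-xL(2-197, N197C) at 1 nM and quencher-tagged PUMA peptide at 400 nM were used. Competitive binders restore fluorescence (620/680 nm), and IC50 values were converted to KI.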

Compound: CNCC#Cc1ccc(OCCCc2sc(N(CCCN(C)C)c3cc(C)c(Nc4nc5ccccc5s4)nn3)nc2C(=O)O)c(F)c1 [Example 200]
- IC50 (H146 cells): 115 nM
- IC50 (MOLT-4 cells): 695 nM
- Ki (Bcl-xL protein): 0.0077 nM

Compound: CNCC#Cc1ccc(OCCCc2sc(N(CC[N+](C)(C)C)c3cc(C)c(Nc4nc5ccccc5s4)nn3)nc2C(=O)[O-])c(F)c1 [Example 201, 2-[[6-(1,3-Benzothiazol-2-ylamino)-5-methyl-pyridazin-3-yl]-[2-(trimethylammonio)ethyl]amino]-5-[3-[2-fluoro-4-[3-(methylamino)prop-1-ynyl]phenoxy]propyl]thiazole-4-carboxylate]
- IC50 (H146 cells): 75.3 nM
- IC50 (MOLT-4 cells): 417 nM
- Ki (Bcl-xL protein): 0.0019 nM

Compound: Cc1cc(N(C)c2nc(C(=O)O)c(CCCOc3ccc(C#CCN4CCCC4)cc3F)s2)nnc1Nc1nc2ccccc2s1 [Example 203, 2-[[6-(1,3-Benzothiazol-2-ylamino)-5-methyl-pyridazin-3-yl]-methyl-amino]-5-[3-[2-fluoro-4-(3-pyrrolidin-1-ylprop-1-ynyl)phenoxy]propyl]thiazole-4-carboxylic acid]
- IC50 (H146 cells): 3.9 nM
- IC50 (MOLT-4 cells): 0.753 nM
- Ki (Bcl-xL protein): 0.0022 nM

Compound: Cc1cc(N(C)c2nc(C(=O)O)c(CCCOc3ccc(C#CCN4CCCCC4)cc3F)s2)nnc1Nc1nc2ccccc2s1 [Example 204, 2-[[6-(1,3-Benzothiazol-2-ylamino)-5-methyl-pyridazin-3-yl]-methyl-amino]-5-[3-[2-fluoro-4-[3-(1-piperidyl)prop-1-ynyl]phenoxy]propyl]thiazole-4-carboxylic acid]
- IC50 (H146 cells): 7.3 nM
- IC50 (MOLT-4 cells): 0.703 nM
- Ki (Bcl-xL protein): 0.006 nM

Compound: Cc1cc(N(C)c2nc(C(=O)O)c(CCCOc3ccc(C#CC(C)N(C)C)cc3F)s2)nnc1Nc1nc2ccccc2s1 (stereo not drawn) [Example 205, 2-[[6-(1,3-Benzothiazol-2-ylamino)-5-methyl-pyridazin-3-yl]-methyl-amino]-5-[3-[4-[3-(dimethylamino)but-1-ynyl]-2-fluoro-phenoxy]propyl]thiazole-4-carboxylic acid]
- IC50 (H146 cells): ≤ 5.93 nM
- IC50 (MOLT-4 cells): 0.374 nM
- Ki (Bcl-xL protein): 0.0023 nM

Compound: CNCC#Cc1ccc(OCCCc2sc(N(CCN(C)C)c3cc(C)c(Nc4nc5ccccc5s4)nn3)nc2C(=O)O)c(F)c1 [Example 207, 2-[[6-(1,3-Benzothiazol-2-ylamino)-5-methyl-pyridazin-3-yl]-[2-(dimethylamino)ethyl]amino]-5-[3-[2-fluoro-4-[3-(methylamino)prop-1-ynyl]phenoxy]propyl]thiazole-4-carboxylic acid]
- IC50 (H146 cells): 1080 nM
- IC50 (MOLT-4 cells): 3280 nM
- Ki (Bcl-xL protein): 0.0037 nM

Compound: Cc1cc(N(CCCC(O)C[N+](C)(C)C)c2nc(C(=O)[O-])c(CCCOc3ccc(C#CCN(C)C)cc3F)s2)nnc1Nc1nc2ccccc2s1 (stereo not drawn) [Example 211, 2-[[6-(1,3-Benzothiazol-2-ylamino)-5-methyl-pyridazin-3-yl]-[4-hydroxy-5-(trimethylammonio)pentyl]amino]-5-[3-[4-[3-(dimethylamino)prop-1-ynyl]-2-fluoro-phenoxy]propyl]thiazole-4-carboxylate]
- IC50 (H146 cells): 66.8 nM
- IC50 (MOLT-4 cells): 484 nM
- Ki (Bcl-xL protein): 0.0065 nM

Compound: CNCC#Cc1ccc(OCCCc2sc(N(CCCCC[N+](C)(C)CCCS(=O)(=O)[O-])c3cc(C)c(Nc4nc5ccccc5s4)nn3)nc2C(=O)O)c(F)c1 [Example 212, 3-[5-[[6-(1,3-Benzothiazol-2-ylamino)-5-methyl-pyridazin-3-yl]-[4-carboxy-5-[3-[2-fluoro-4-[3-(methylamino)prop-1-ynyl]phenoxy]propyl]thiazol-2-yl]amino]pentyl-dimethyl-ammonio]propane-1-sulfonate]
- IC50 (H146 cells): 3240 nM
- IC50 (MOLT-4 cells): 2880 nM
- Ki (Bcl-xL protein): 0.001 nM

Compound: CNCC#Cc1ccc(OCCCc2sc(N(CCCCCN(C)C)c3cc(C)c(Nc4nc5ccccc5s4)nn3)nc2C(=O)O)c(F)c1 [Example 213, 2-[[6-(1,3-Benzothiazol-2-ylamino)-5-methyl-pyridazin-3-yl]-[5-(dimethylamino)pentyl]amino]-5-[3-[2-fluoro-4-[3-(methylamino)prop-1-ynyl]phenoxy]propyl]thiazole-4-carboxylic acid]
- IC50 (H146 cells): 72.8 nM
- IC50 (MOLT-4 cells): 93.6 nM
- Ki (Bcl-xL protein): 0.0015 nM

Compound: Cc1cc(N(C)c2nc(C(=O)O)c(CCCOc3ccc(CCCN(C)C)cc3F)s2)nnc1Nc1nc2ccccc2s1 [Example 214, 2-[[6-(1,3-Benzothiazol-2-ylamino)-5-methyl-pyridazin-3-yl]-methyl-amino]-5-[3-[4-[3-(dimethylamino)propyl]-2-fluoro-phenoxy]propyl]thiazole-4-carboxylic acid]
- IC50 (H146 cells): 26.7 nM
- IC50 (MOLT-4 cells): 22.5 nM
- Ki (Bcl-xL protein): 0.004 nM

Compound: Cc1cc(N(CCCC(O)C[N+]23CCC(CC2)CC3)c2nc(C(=O)[O-])c(CCCOc3ccc(C#CCN(C)C)cc3F)s2)nnc1Nc1nc2ccccc2s1 (stereo not drawn) [Example 215, 2-[[6-(1,3-Benzothiazol-2-ylamino)-5-methyl-pyridazin-3-yl]-(4-hydroxy-5-quinuclidin-1-ium-1-yl-pentyl)amino]-5-[3-[4-[3-(dimethylamino)prop-1-ynyl]-2-fluoro-phenoxy]propyl]thiazole-4-carboxylate]
- IC50 (H146 cells): 174 nM
- IC50 (MOLT-4 cells): 406 nM
- Ki (Bcl-xL protein): 0.0031 nM

Compound: Cc1cc(N(CCCC(O)C[N+]23CCN(CC2)CC3)c2nc(C(=O)[O-])c(CCCOc3ccc(C#CCN(C)C)cc3F)s2)nnc1Nc1nc2ccccc2s1 (stereo not drawn) [Example 216, 2-[[5-(1-aza-4-azoniabicyclo[2.2.2]octan-4-yl)-4-hydroxy-pentyl]-[6-(1,3-benzothiazol-2-ylamino)-5-methyl-pyridazin-3-yl]amino]-5-[3-[4-[3-(dimethylamino)prop-1-ynyl]-2-fluoro-phenoxy]propyl]thiazole-4-carboxylate]
- IC50 (H146 cells): 222 nM
- IC50 (MOLT-4 cells): 146 nM
- Ki (Bcl-xL protein): 0.004 nM

Compound: Cc1cc(N(CCCC(O)C[N+]2(C)CCOCC2)c2nc(C(=O)[O-])c(CCCOc3ccc(C#CCN(C)C)cc3F)s2)nnc1Nc1nc2ccccc2s1 (stereo not drawn) [Example 217, 2-[[6-(1,3-Benzothiazol-2-ylamino)-5-methyl-pyridazin-3-yl]-[4-hydroxy-5-(4-methylmorpholin-4-ium-4-yl)pentyl]amino]-5-[3-[4-[3-(dimethylamino)prop-1-ynyl]-2-fluoro-phenoxy]propyl]thiazole-4-carboxylate]
- IC50 (H146 cells): 86.2 nM
- IC50 (MOLT-4 cells): 180 nM
- Ki (Bcl-xL protein): 0.0041 nM

Compound: Cc1cc(N(C)c2nc(C(=O)O)c(CCCOc3ccc(C#CCNCC[N+](C)(C)CCCS(=O)(=O)[O-])cc3F)s2)nnc1Nc1nc2ccccc2s1 [Example 218, 3-[2-[3-[4-[3-[2-[[6-(1,3-Benzothiazol-2-ylamino)-5-methyl-pyridazin-3-yl]-methyl-amino]-4-carboxy-thiazol-5-yl]propoxy]-3-fluoro-phenyl]prop-2-ynylamino]ethyl-dimethyl-ammonio]propane-1-sulfonate]
- IC50 (H146 cells): 891 nM
- IC50 (MOLT-4 cells): 270 nM
- Ki (Bcl-xL protein): 0.0012 nM

Compound: Cc1cc(N(CCCC(O)C[N+]2(C)CCCCC2)c2nc(C(=O)[O-])c(CCCOc3ccc(C#CCN(C)C)cc3F)s2)nnc1Nc1nc2ccccc2s1 (stereo not drawn) [Example 220, 2-[[6-(1,3-Benzothiazol-2-ylamino)-5-methyl-pyridazin-3-yl]-[4-hydroxy-5-(1-methylpiperidin-1-ium-1-yl)pentyl]amino]-5-[3-[4-[3-(dimethylamino)prop-1-ynyl]-2-fluoro-phenoxy]propyl]thiazole-4-carboxylate]
- IC50 (H146 cells): 221 nM
- IC50 (MOLT-4 cells): 984 nM
- Ki (Bcl-xL protein): 0.0035 nM

Compound: Cc1cc(N(CCCC(O)C[N+]2(C)CCN(C)CC2)c2nc(C(=O)[O-])c(CCCOc3ccc(C#CCN(C)C)cc3F)s2)nnc1Nc1nc2ccccc2s1 (stereo not drawn) [Example 221, 2-[[6-(1,3-Benzothiazol-2-ylamino)-5-methyl-pyridazin-3-yl]-[5-(1,4-dimethylpiperazin-1-ium-1-yl)-4-hydroxy-pentyl]amino]-5-[3-[4-[3-(dimethylamino)prop-1-ynyl]-2-fluoro-phenoxy]propyl]thiazole-4-carboxylate]
- IC50 (H146 cells): 94.4 nM
- IC50 (MOLT-4 cells): 29.5 nM
- Ki (Bcl-xL protein): 0.0017 nM

Compound: Cc1cc(N(C)c2nc(C(=O)[O-])c(CCCOc3ccc(C#CCNCC[N+](C)(C)C)cc3F)s2)nnc1Nc1nc2ccccc2s1 [Example 222, 2-[3-[4-[3-[2-[[6-(1,3-Benzothiazol-2-ylamino)-5-methyl-pyridazin-3-yl]-methyl-amino]-4-carboxy-thiazol-5-yl]propoxy]-3-fluoro-phenyl]prop-2-ynylamino]ethyl-trimethyl-ammonium]
- IC50 (H146 cells): 32.4 nM
- IC50 (MOLT-4 cells): 61 nM
- Ki (Bcl-xL protein): 0.0014 nM

Compound: Cc1cc(N(C)c2nc(C(=O)O)c(CCCOc3ccc(C#CCNCCN(C)C)cc3F)s2)nnc1Nc1nc2ccccc2s1 [Example 223, 2-[[6-(1,3-Benzothiazol-2-ylamino)-5-methyl-pyridazin-3-yl]-methyl-amino]-5-[3-[4-[3-[2-(dimethylamino)ethylamino]prop-1-ynyl]-2-fluoro-phenoxy]propyl]thiazole-4-carboxylic acid]
- IC50 (H146 cells): 7.46 nM
- IC50 (MOLT-4 cells): 3.13 nM
- Ki (Bcl-xL protein): 0.0018 nM

Compound: CNCC#Cc1ccc(OCCCc2sc(N(CCCCCC[N+](C)(C)C)c3cc(C)c(Nc4nc5ccccc5s4)nn3)nc2C(=O)[O-])c(F)c1 [Example 224, 2-[[6-(1,3-Benzothiazol-2-ylamino)-5-methyl-pyridazin-3-yl]-[6-(trimethylammonio)hexyl]amino]-5-[3-[2-fluoro-4-[3-(methylamino)prop-1-ynyl]phenoxy]propyl]thiazole-4-carboxylate]
- IC50 (H146 cells): 1160 nM
- IC50 (MOLT-4 cells): 2180 nM
- Ki (Bcl-xL protein): 0.002 nM
